Experimental data reported in article PMC9563815, “Overcoming high level adenosine-mediated immunosuppression by DZD2269, a potent and selective A2aR antagonist” (Journal of Experimental & Clinical Cancer Research : CR, 2022).
Blank lines part the entries; values can stand above or below the molecule they belong to.

Legend:
[1] = tested on: monocyte-derived dendritic cells; experiment: DC maturation assay (CD83); assay type: cell-based, human; conditions: LPS-stimulated iDCs, 10 µM NECA
Procedure: Monocytes were isolated from human PBMCs using untouched human monocytes kit (Invitrogen, #11350D) according to the manufacturer instruction. Isolated monocytes were cultured with 100 ng/ml GM-CSF (R&D, 215-GM) and 50 ng/ml IL-4 (R&D, 204-IL) supplemented every 2 days. On day 5, 100 ng/ml LPS (Sigma, L4391) was added for 48 h to stimulate DC maturation. […] CD83 was measured as DC maturation marker by flow cytometry, and the gating strategy is shown in supplemental Fig. S2. Data were analyzed with FlowJo software.

[2] = tested on: CREB phosphorylation in T cells; experiment: pCREB signaling inhibition assay, ex vivo human whole blood T cells; assay type: cell-based; conditions: for IC50: Homo sapiens, T-cell, read-out: IC50, block of CREB phosphorylation in CD4+ T cells; for pCREB at the highest concentration tested: 10 µM antagonist
Procedure: Whole blood samples from three different healthy donors were collected and seeded in 96-well deep plates at a concentration of 90 µL/well. […] Cells were then lysed and fixed with BD Lyse/Fix Buffer (BD Bioscience, 558,049) for 15 min at 37 °C. After washed twice with DPBS (Hyclone, SH30028.02), the cells were centrifuged at 600 × g for 8 min. Cells were permeabilized by slow addition of BD Phosflow™ Perm Buffer III (BD Bioscience, 55,805) and incubated on ice for 60 min, and then resuspended in DPBS and stained with anti-CD3, anti-CD4, anti-CD8, and anti-pCREB (Ser133) antibodies for 1 h at room temperature in the dark. Cells were then washed twice and acquired on a flow cytometric (BD FACSCanto™ II) with DIVA software (BD Biosciences). The reported pCREB signal is the mean fluorescent intensity (MFI).
For ex vivo pCREB assessment, whole blood samples were collected from healthy donors, plated at 90 µL/well in 96-well deep plates, and pre-incubated with DZD2269 at 37 °C for 30 min.

[3] = biological target: T1, A2aR (Homo sapiens, UniProt P29274); experiment: cAMP accumulation assay (HTRF) in CHO-A2aR cells; assay type: cell-based
T1 construct: host or cells: CHO
T1 sequence (P29274 whole entry): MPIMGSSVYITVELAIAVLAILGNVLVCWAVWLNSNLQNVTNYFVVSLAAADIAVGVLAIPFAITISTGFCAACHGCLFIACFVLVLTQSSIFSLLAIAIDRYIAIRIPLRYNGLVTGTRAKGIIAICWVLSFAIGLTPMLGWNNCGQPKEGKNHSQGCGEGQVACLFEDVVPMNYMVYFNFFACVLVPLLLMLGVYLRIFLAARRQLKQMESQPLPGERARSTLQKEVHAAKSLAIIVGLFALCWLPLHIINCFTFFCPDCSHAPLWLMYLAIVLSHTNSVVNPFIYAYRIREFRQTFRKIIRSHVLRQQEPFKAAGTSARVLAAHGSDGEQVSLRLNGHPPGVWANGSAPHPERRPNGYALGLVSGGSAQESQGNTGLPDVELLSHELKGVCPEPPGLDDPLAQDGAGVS
Procedure: CHO cells stably expressing human adenosine receptors (CHO-A2aR, CHO-A2bR, CHO-A1R and CHO-A3R) were purchased from GenScript. […] All CHO cells were cultured in Ham’s F12K medium (Gibco) with 10% FBS (Gibco) and RM-1 in DMEM (Gibco) medium with 10% FBS. […] All other cells were cultured without antibiotics. All cells were maintained and propagated in a humidified incubator at 37 °C, 5% CO2.
Assays were performed with HTRF cAMP kit (Cisbio, 62AM4PEJ). […] CHO-A2aR and CHO-A2bR cells were seeded in the plates at a density of 5,000 cells/well in F-12 medium containing 10% FBS. […] The dose-response curves were fitted by nonlinear regression using GraphPad Prism.

[4] = tested on: activated human PBMCs; experiment: PBMC cytokine release assay (IL-2, IFN-γ, TNF-α); assay type: cell-based; conditions: NECA at 10 µM
Procedure: PBMCs (2 × 10^5 cells/well) were seeded in 96 well plate pre-coated with 10 ng/ml anti-CD3 antibody and stimulated with 20 ng/ml anti-CD28 antibodies to test IFN-γ and IL-2 secretion) or stimulated with 100 ng/ml LPS for TNF-α detection. […] Cell supernatants were collected at 24 h (IL-2 and TNF-α) and 72 h (IFN-γ) post-stimulation. IL-2 (R&D, S2050), IFN-γ (R&D, SIF50) and TNF-α (eBioscience, 88-7346-88) ELISA kits were used for measurement.

[5] = tested on: CREB phosphorylation in CD3+ T cells; experiment: CREB phosphorylation assay in whole blood; assay type: cell-based; conditions: human whole blood, up to 100 µM
Procedure: Whole blood samples from three different healthy donors were collected and seeded in 96-well deep plates at a concentration of 90 µL/well. […] After washed twice with DPBS (Hyclone, SH30028.02), the cells were centrifuged at 600 × g for 8 min. […] Cells were then washed twice and acquired on a flow cytometric (BD FACSCanto™ II) with DIVA software (BD Biosciences). The reported pCREB signal is the mean fluorescent intensity (MFI).

[6] = tested on: Pan02 tumors; experiment: Pan02 pancreatic subcutaneous syngeneic model; assay type: in vivo, C57BL/6 mice; conditions: oxaliplatin 10 mg/kg alone or DZD2269 3 mg/kg alone
Procedure: B16F10, RM-1 and Pan02 cells were harvested and suspended in DPBS. Single-cell suspensions of greater than 90% viability were used for injection. Tumor cells were injected subcutaneously in the left flank of the C57BL/6 mice with a total cell number of 2 × 10^6 (B16F10 and RM-1) and 1 × 10^7 cells (Pan02) in a volume of 0.1 ml. Tumor-bearing mice were randomized into treatment groups when the mean tumor volume reached 40 to 100 mm^3. Mice were then treated with vehicle or compounds starting the day after randomization, and tumor volume and body weight were measured twice a week. Tumor growth inhibition from the onset of treatment was assessed by comparing the mean change in tumor volume between control and treatment groups and expressed as tumor growth inhibition. Tumor nodules were measured two-dimensionally with calipers, and tumor volumes were calculated using the following formula: tumor volume (TV) = (length × width^2) × 0.52.
Tumor tissues were collected at the end of the study. […] Positive cell percentage of stained IHC slides was quantified with a HALO image analysis platform (Indica Labs).
Fig. 4 DZD2269 enhances the efficacy of radiotherapy (RT) in syngeneic mouse in vivo models. […] (A) IFN-γ in supernatant was measured 72 h after co-culture. (B) IL-2 in supernatant was measured 24 h after co-culture. […] Infiltrated CD8 + and CD4 + T cells were determined by IHC. […]

[7] = set-up: method as in PMID 24835328, PMID 32685154; conditions: cited from earlier work

Structure (SMILES): CCNC(=O)[C@H]1O[C@@H](n2cnc3c(N)ncnc32)[C@H](O)[C@@H]1O [NECA, 5′-N-ethylcarboxamide adenosine]
IL-2, IFN-γ and TNF-α production [4]: completely blocked | CREB phosphorylation in CD3+ T cells [5]: stimulated CREB phosphorylation in a concentration dependent manner

Structure (SMILES): O=C1[O][Pt]2([NH][C@@H]3CCCC[C@H]3[NH]2)[O]C1=O [oxaliplatin, Oxaliplatin]
Anti-tumor effect, single agent [6]: showed some anti-tumor effect

Structure (SMILES): Nc1ncnc2c1ncn2[C@@H]1O[C@H](CO)[C@@H](O)[C@H]1O [adenosine]
Biological half-life in human blood [7]: less than 10 s

More lines, main results first:

IC50 [2]: 130 nM | IC50 ([3]; stimulated with 0.1 µM NECA): 4.1 ± 1.2 nM | IC50 ([3]; stimulated with 1 µM adenosine): 3.4 ± 0.92 nM | IC50 ([3]; stimulated with 10 µM NECA): 408 ± 25 nM | IC50 ([3]; stimulated with 100 µM adenosine): 463 ± 90 nM
Structure (SMILES): Cc1c(C#N)cccc1-c1cc(-c2cn(Cc3cccc(C(C)(C)O)n3)nn2)nc(N)n1 [AB928]
Relief of NECA inhibition of DC maturation (CD83) [1]: did not relieve the inhibitory effect | Concentration that brings pCREB to the control level ([2]; human whole blood, 10 µM NECA): over 1,000 nM

IC50 [2]: > 1000 nM
Structure (SMILES): Cc1ccc(-c2nc(N)nc3c2nnn3Cc2cccc(CO[C@H]3CCOC3)n2)o1 [CPI-444]
pCREB at the highest concentration tested ([2]; human whole blood, 10 µM NECA): failed to bring pCREB to the baseline (control) level

IC50 [2]: > 1000 nM
Structure (SMILES): Cc1cc(-c2nnc(N)nc2-c2ccc(F)cc2)cc(Cl)n1 [AZD4635]
pCREB at the highest concentration tested ([2]; human whole blood, 10 µM NECA): failed to bring pCREB to the baseline (control) level
